Columns and labels:
Format in all cases: biochemical
[1] = PPi release assay, adenylation activity with L-phenylalanine; conditions: substrate L-phenylalanine; for adenylation activity (PPi release assay): co-purified with Tcp13, or Tcp17 or VMbtH
Excerpt: (§1) These assays use inorganic pyrophosphatases to convert PPi produced during aminoacyl-AMP formation to orthophosphate (Pi). To measure Pi concentrations some of these assays use molybdate/malachite green reagent for colorimetric detection (McQuade et al. 2008) or, as used in the context of the present invention, a shift in absorbance maximum by conversion of 7-methyl-6-thioguanosine (MESG) by purine nucleoside phosphorylase (Ehmann D. E. et al. (Proc. Natl. Acad. Sci. (2000) 97, 2509-2514) or Daniel & Aldrich (Anal. Biochem. (2010) 404, 56-63)).
(§2) To determine the adenylation activity of the adenylation domains, the Enzchek® pyrophosphate assay kit (Life Technologies) was used as described by Ehmann D. E. et al. (Proc Nat Acad Science (2000) 97, 2509-2514) with small modifications. The reactions were performed 96 wells UV/Vis transparent plates (BD Falcon). The reaction mixture comprises 50 mM HEPES pH 8.0, 10 mM MgCl2, 5 mM ATP, 75 mM DTT, 0.03 U Inorganic Pyrophosphatase (IP), 1 U Purine Nucleoside Phosphorylase (PNP) and 0.2 mM MESG in a volume of 70 μl. Next 20 μl (around 0.5-2 μM final concentration) of purified A(T) domain, with or without co-purification of the MbtH like helper protein was added and the reaction was pre-incubated for 15 minutes at RT to reduce contaminating Pi. Following the pre-incubation, 10 μl of a 10 mM or 1 mM solution of the appropriate amino acid depending on the performed specificity determination was added to initiate the adenylation reaction and the absorbance at 360 nm was measured using a TECAN I Control spectrophotometer. Absorbance measurements were made every 5 to 10 min over a period of up to 240 min. A reaction with addition of 10 μl MilliQ water instead was used to determine and subtract the background absorbance. As substrates the following amino acids were used: D- or L-phenylalanine, D- or L-hydroxyphenylglycine, D- or L-phenylglycine, L-tryptophan, L-valine, L-cysteine, and L-leucine.

[2] = PPi release assay, adenylation activity with D-hydroxyphenylglycine; conditions: for adenylation activity (PPi release assay) / adenylation activity (absorption 360 nm, PPi release assay): substrate D-hydroxyphenylglycine
Excerpt: as §1, §2

[3] = PPi release assay, adenylation activity with L-phenylglycine; conditions: for adenylation activity (PPi release assay): substrate L-phenylglycine, co-purified with Tcp13, or Tcp17 or VMbtH; for Formed PPi: substrate L-PG 1 mM
Excerpt: as §1, §2

[4] = PPi release assay, adenylation activity with L-hydroxyphenylglycine; conditions: for adenylation activity (PPi release assay) / adenylation activity (absorption 360 nm, PPi release assay): substrate L-hydroxyphenylglycine
Excerpt: as §1, §2

[5] = PPi release assay, adenylation activity with D-phenylalanine; conditions: substrate D-phenylalanine; for adenylation activity (PPi release assay): co-purified with Tcp13, or Tcp17 or VMbtH
Excerpt: as §1, §2

[6] = PPi release assay, adenylation activity with D-phenylglycine; conditions: for adenylation activity (PPi release assay): substrate D-phenylglycine, co-purified with Tcp13, or Tcp17 or VMbtH; for Formed PPi: substrate D-PG 1 mM
Excerpt: as §1, §2

[7] = protein alone, without MbtH-like protein
[8] = co-purified with Tcp13, or Tcp17 or VMbtH
[9] = co-purified with MbtH-like protein CMbtH
[10] = co-purified with MbtH-like protein VMbtH
[11] = co-purified with MbtH-like protein Tcp13
[12] = substrate D-HPG 0.1 mM, co-purified with MbtH-like protein Tcp 13
[13] = substrate D-HPG 0.1 mM, co-purified with MbtH-like protein Tcp 17
[14] = substrate D-HPG 0.1 mM, co-purified with MbtH-like protein VMbtH
[15] = substrate D-HPG 1 mM, co-purified with MbtH-like protein Tcp 13
[16] = substrate D-HPG 1 mM, co-purified with MbtH-like protein Tcp 17
[17] = substrate D-HPG 1 mM, co-purified with MbtH-like protein VMbtH
[18] = co-purified with MbtH-like protein Tcp 13
[19] = co-purified with MbtH-like protein Tcp 17
[20] = substrate L-HPG 0.1 mM, co-purified with MbtH-like protein Tcp 13
[21] = substrate L-HPG 0.1 mM, co-purified with MbtH-like protein Tcp 17
[22] = substrate L-HPG 0.1 mM, co-purified with MbtH-like protein VMbtH
[23] = substrate L-HPG 1 mM, co-purified with MbtH-like protein Tcp 13
[24] = substrate L-HPG 1 mM, co-purified with MbtH-like protein Tcp 17
[25] = substrate L-HPG 1 mM, co-purified with MbtH-like protein VMbtH

Row | Substance | adenylation activity (PPi release assay) [1] | adenylation activity (absorption 360 nm, PPi release assay) [1, 7] | adenylation activity (PPi release assay) [2, 8] | adenylation activity (absorption 360 nm, PPi release assay) [2, 7] | adenylation activity (PPi release assay) [3] | adenylation activity (PPi release assay) [4, 8] | adenylation activity (absorption 360 nm, PPi release assay) [4, 7] | adenylation activity (PPi release assay) [5] | adenylation activity (absorption 360 nm, PPi release assay) [5, 7] | adenylation activity (PPi release assay) [6] | adenylation activity (absorption 360 nm, PPi release assay) [1, 10] | adenylation activity (absorption 360 nm, PPi release assay) [2, 10] | adenylation activity (absorption 360 nm, PPi release assay) [4, 10] | adenylation activity (absorption 360 nm, PPi release assay) [5, 10] | adenylation activity (absorption 360 nm, PPi release assay) [1, 11] | Formed PPi [2, 12] | Formed PPi [2, 13] | Formed PPi [2, 14] | Formed PPi [2, 15] | Formed PPi [2, 16] | further results
1 | BpsB_M1_A: purified adenylation domain of BpsB module M1 (SEQ ID NO: 26); Amycolatopsis balhimycina | no adenylation activity | No adenylation activity | no adenylation activity | No adenylation activity | no adenylation activity | no adenylation activity | No adenylation activity | no adenylation activity | No adenylation activity | no adenylation activity | – | – | – | – | – | – | – | – | – | – | adenylation activity (PPi release assay) ([4]; co-purified with MbtH-like protein BMbtH): confirmed its activity
2 | ComB_M1_A: purified adenylation domain of ComB module M1 (SEQ ID NO: 9); Streptomyces lavendulae | no adenylation activity | No adenylation activity | no adenylation activity | No adenylation activity | no adenylation activity | no adenylation activity | No adenylation activity | no adenylation activity | No adenylation activity | no adenylation activity | – | – | – | – | – | – | – | – | – | – | adenylation activity (PPi release assay) [2, 9]: confirmed its activity; adenylation activity (PPi release assay) [4, 9]: confirmed its activity
3 | Dbv25_M1_A: purified adenylation domain of Dbv25 module M1 (SEQ ID NO: 2); Nonomuraea sp. ATCC 39727 | – | No adenylation activity | – | No adenylation activity | – | – | No adenylation activity | – | No adenylation activity | – | no activity | clear adenylation activity | clear adenylation activity | no activity | – | – | – | – | – | – | –
4 | StaA_M1_A: purified adenylation domain of StaA module M1 (SEQ ID NO: 3); Streptomyces toyocaensis | – | No adenylation activity | – | No adenylation activity | – | – | No adenylation activity | – | No adenylation activity | – | no activity | clear adenylation activity | clear adenylation activity | no activity | – | – | – | – | – | – | –
5 | Tcp9_M1_AT: purified adenylation thiolation didomain of Tcp9 (SEQ ID NO: 1 plus adjacent thiolation domain), MBP fusion, His-tag | – | No adenylation activity | – | No adenylation activity | – | – | No adenylation activity | – | No adenylation activity | – | – | – | – | – | no activity | 2.07 mM/min/mM enzyme | 1.71 mM/min/mM enzyme | 3.72 mM/min/mM enzyme | 5.28 mM/min/mM enzyme | 4.63 mM/min/mM enzyme | Formed PPi [2, 17]: 8.44 mM/min/mM enzyme; adenylation activity (absorption 360 nm, PPi release assay) [2, 11]: clear adenylation activity; Formed PPi [3, 18]: 1.32 mM/min/mM enzyme; Formed PPi [3, 19]: 1.44 mM/min/mM enzyme; Formed PPi [3, 10]: 2.32 mM/min/mM enzyme; Formed PPi [4, 20]: 1.18 mM/min/mM enzyme; Formed PPi [4, 21]: 1.20 mM/min/mM enzyme; Formed PPi [4, 22]: 1.23 mM/min/mM enzyme; Formed PPi [4, 23]: 1.16 mM/min/mM enzyme; Formed PPi [4, 24]: 1.34 mM/min/mM enzyme; Formed PPi [4, 25]: 1.40 mM/min/mM enzyme; adenylation activity (absorption 360 nm, PPi release assay) [4, 11]: clear adenylation activity; adenylation activity (absorption 360 nm, PPi release assay) [5, 11]: no activity; Formed PPi [6, 18]: 0.05 mM/min/mM enzyme; Formed PPi [6, 19]: 0.05 mM/min/mM enzyme; Formed PPi [6, 10]: 0.07 mM/min/mM enzyme
6 | Tcp11_M1_A: purified adenylation domain of Tcp11 module M1 (SEQ ID NO: 7), maltose binding protein fusion, His-tag; Actinoplanes teichomyceticus | – | No adenylation activity | – | No adenylation activity | – | – | No adenylation activity | – | No adenylation activity | – | – | – | – | – | no activity | 0.08 mM/min/mM enzyme | 0.11 mM/min/mM enzyme | 0 mM/min/mM enzyme | 0.66 mM/min/mM enzyme | 0.63 mM/min/mM enzyme | Formed PPi [2, 17]: 0.86 mM/min/mM enzyme; adenylation activity (absorption 360 nm, PPi release assay) [2, 11]: clear adenylation activity; Formed PPi [3, 18]: 0.17 mM/min/mM enzyme; Formed PPi [3, 19]: 0.23 mM/min/mM enzyme; Formed PPi [3, 10]: 0.09 mM/min/mM enzyme; Formed PPi [4, 20]: 0.80 mM/min/mM enzyme; Formed PPi [4, 21]: 0.95 mM/min/mM enzyme; Formed PPi [4, 22]: 1.38 mM/min/mM enzyme; Formed PPi [4, 23]: 1.03 mM/min/mM enzyme; Formed PPi [4, 24]: 1.04 mM/min/mM enzyme; Formed PPi [4, 25]: 1.54 mM/min/mM enzyme; adenylation activity (absorption 360 nm, PPi release assay) [4, 11]: clear adenylation activity; adenylation activity (absorption 360 nm, PPi release assay) [5, 11]: no activity; Formed PPi [6, 18]: 0 mM/min/mM enzyme; Formed PPi [6, 19]: 0.04 mM/min/mM enzyme; Formed PPi [6, 10]: 0 mM/min/mM enzyme
